≈ marks a conversion by molar mass, not a printed value.
Experiments:
H9 [1] = assay: Concentration which was toxic to 50% of the mock-infected H9 lymphocyte.; assay type: functional, cell-based; settings: Homo sapiens
H9 [2] = assay: Antiviral activity against HIV-1(IIIB) infected H9 cell lines.; assay type: functional, cell-based; settings: Homo sapiens
[3] = Therapeutic index was determined; settings: for selectivity ratio: read-out: TI

| Structure (SMILES) | IC50 (H9 [1]) | EC50 (H9 [2]) | selectivity ratio [3] | TI [3] |
| --- | --- | --- | --- | --- |
| CC1(C)CC[C@]2(C(=O)O)CC[C@]3(C)[C@H](CC[C@@H]4[C@@]5(C)CC[C@H](OC(=O)CCCC(=O)O)C(C)(C)[C@@H]5CC[C@]43C)[C@@H]2C1 | 12.9 µg/mL (≈ 22.5 µM) | 2.6 µg/mL (≈ 4.54 µM) | 4.9 | – |
| CC1(C)CC[C@]2(C(=O)O)CC[C@]3(C)C(=CC[C@@H]4[C@@]5(C)CC[C@H](O)C(C)(C)[C@@H]5CC[C@]43C)[C@@H]2C1 [OLEANOLIC_ACID] | 21.8 µg/mL (≈ 47.7 µM) | 1.7 µg/mL (≈ 3.72 µM) | – | 12.8 |
| CC(CC(=O)O)CC(=O)O[C@H]1CC[C@]2(C)[C@H]3CC[C@@H]4[C@@H]5CC(C)(C)CC[C@]5(C(=O)O)CC[C@@]4(C)[C@]3(C)CC[C@H]2C1(C)C (stereo partly specified) | 12.3 µg/mL (≈ 21 µM) | 0.1 µg/mL (≈ 0.17 µM) | 123 | – |
| CC(C)(CC(=O)O)CC(=O)O[C@H]1CC[C@]2(C)[C@H]3CC[C@@H]4[C@@H]5CC(C)(C)CC[C@]5(C(=O)O)CC[C@@]4(C)[C@]3(C)CC[C@H]2C1(C)C | 8.3 µg/mL (≈ 13.8 µM) | 0.1 µg/mL (≈ 0.166 µM) | 83 | – |
| CC1(C)CC[C@]2(C(=O)O)CC[C@]3(C)C(=CC[C@@H]4[C@@]5(C)CC[C@H](OC(=O)CC6(CC(=O)O)CCCC6)C(C)(C)[C@@H]5CC[C@]43C)[C@@H]2C1 | 4.7 µg/mL (≈ 7.52 µM) | 1.2 µg/mL (≈ 1.92 µM) | – | – |
| CC1(C)CC[C@]2(C(=O)O)CC[C@]3(C)[C@H](CC[C@@H]4[C@@]5(C)CC[C@H](OC(=O)CC6(CC(=O)O)CCCC6)C(C)(C)[C@@H]5CC[C@]43C)[C@@H]2C1 | 10.1 µg/mL (≈ 16.1 µM) | 0.1 µg/mL (≈ 0.16 µM) | 101 | – |
| CC(CC(=O)O)CC(=O)O[C@H]1CC[C@]2(C)[C@H]3CC=C4[C@@H]5CC(C)(C)CC[C@]5(C(=O)O)CC[C@@]4(C)[C@]3(C)CC[C@H]2C1(C)C (stereo partly specified) | 27.5 µg/mL (≈ 47 µM) | 8.3 µg/mL (≈ 14.2 µM) | 3.3 | – |
| CC1(C)CC[C@]2(CNC(=O)CC3(CC(=O)O)CCCC3)CC[C@]3(C)C(=CC[C@@H]4[C@@]5(C)CC[C@H](OC(=O)CC6(CC(=O)O)CCCC6)C(C)(C)[C@@H]5CC[C@]43C)[C@@H]2C1 | 19.5 µg/mL (≈ 25.1 µM) | 0.1 µg/mL (≈ 0.129 µM) | 195 | – |
| CC1(C)CC[C@]2(C(=O)O)CC[C@]3(C)C(=CC[C@@H]4[C@@]5(C)CC[C@H](OC(=O)CCCC(=O)O)C(C)(C)[C@@H]5CC[C@]43C)[C@@H]2C1 | 14.6 µg/mL (≈ 25.6 µM) | 7.1 µg/mL (≈ 12.4 µM) | – | – |
| CC1(C)CC[C@]2(C(=O)O)CC[C@]3(C)[C@H](CC[C@@H]4[C@@]5(C)CC[C@H](O)C(C)(C)[C@@H]5CC[C@]43C)[C@@H]2C1 | 17.4 µg/mL (≈ 37.9 µM) | 0.5 µg/mL (≈ 1.09 µM) | 34.8 | – |
| CC1(C)CC[C@]2(C(=O)O)CC[C@]3(C)[C@H](CC[C@@H]4[C@@]5(C)CC[C@H](OC(=O)CC(C)(C)C(=O)O)C(C)(C)[C@@H]5CC[C@]43C)[C@@H]2C1 | 13.7 µg/mL (≈ 23.3 µM) | 0.0039 µg/mL (≈ 0.00665 µM) | 3570 | – |
| CC(C)(CC(=O)O)CC(=O)O[C@H]1CC[C@]2(C)[C@H]3CC=C4[C@@H]5CC(C)(C)CC[C@]5(C(=O)O)CC[C@@]4(C)[C@]3(C)CC[C@H]2C1(C)C | 14.2 µg/mL (≈ 23.7 µM) | 1.5 µg/mL (≈ 2.5 µM) | – | – |
| CC(C)(CC(=O)O)CC(=O)NC[C@]12CCC(C)(C)C[C@H]1C1=CC[C@@H]3[C@@]4(C)CC[C@H](OC(=O)CC(C)(C)CC(=O)O)C(C)(C)[C@@H]4CC[C@@]3(C)[C@]1(C)CC2 | 21.2 µg/mL (≈ 29.2 µM) | 0.1 µg/mL (≈ 0.138 µM) | 212 | – |

— ChEMBL document CHEMBL1134821, “Synthesis and anti-HIV activity of oleanolic acid derivatives” (Bioorg Med Chem Lett, 2001)
